Assay results from US7968558B2, “Amidine derivatives of 2-heteroaryl-quinazolines and quinolines; potent analgesics and anti-inflammatory agents” (Rottapharm S.p.A., priority 2006, dated 2011).
Counter-ions that a name gives are not always drawn.

Tests used:
[1] = test system: IL-1 production; experiment: IL-1 production in IL-1 stimulated human chondrosarcoma cell line; assay type: cell-based; details: Compound concentration is 10 μM
Text: (§1) The compounds of the invention have been found effective in interfering with cytokine production in several cell lines, representative examples of this effect are reported in Table 3, for two representative cytokines, in IL-1 stimulated human chondrosarcoma cell line.

[2] = test system: mechanical hyperalgesia associated with STZ-induced diabetes; experiment: STZ-induced diabetes mechanical hyperalgesia (neuropathic pain); assay type: in vivo, rat
Experimental: Streptozotocin (STZ)-induced diabetes in the rat has been increasingly used as a model of painful diabetic neuropathy to assess the efficacies of potential analgesic agents (C. Courteix, Pain 1993, 53, 81-8). The compounds of the invention were tested for efficacy in reducing mechanical hyperalgesia associated with STZ-induced diabetes in the rat, according to the experimental model as described by the literature. Diabetes was produced with the injection of a single dose (75 mg/Kg i.p.) of STZ. In the following four weeks after the induction of diabetes the clinical symptoms (weight, body and skin temperature, motility and hyperglycemia) progressively developed by the animals, are strictly monitored. After four weeks, the scores obtained in diabetic rats to various pain stimuli (in particular mechanical stimuli) were grater than those in normal rats, indicating hyperalgesia. The hyperalgesia induced by diabetes was evaluated using the Randall-Selitto method as above described, and quantitated using the analgesimeter. Also in this case, the difference in the mechanical pain threshold between the basal value (generally 230-250 g) and the one tolerated by the animals treated with the drug, is defined as mechanical hyperalgesia. The compounds of the invention were administered i.p. (solution, Tween 80, 10% in saline) at different doses, and mechanical hyperalgesia was measured at the reported time, as maximum percent effect (MPE) which represents the difference (%) in pain threshold between the animals treated with the drug and the controls that received only the vehicle, compared with the weight borne by naïf non-diabetic controls. A 100% protection means that the diabetic animals treated with the compound can tolerate the same stimulus (weight) as the naïf non-diabetic animals. MPE higher than 100% means that the diabetic animal treated with the compound can tolerate stimuli (weight) higher than the control non-diabetic animals (hypoalgesia).

[3] = test system: IL-6 production; experiment: IL-6 production in IL-1 stimulated human chondrosarcoma cell line; assay type: cell-based; details: Compound concentration is 10 μM
Text: as §1

[4] = test system: COX-2 expression; experiment: IL-1β induced COX-2 expression in SW1353 human chondrosarcoma cell line; assay type: cell-based; details: at 10 μM
Text: (§2) Conversely, compounds of the invention are able to inhibit, at micromolar concentration, IL-1β induced PGE2 production in cellular systems. This inhibition effect on the production of the pro-inflammatory mediator PGE2, instead of to be ascribed to a direct COX-2 inhibition, as happens with Celecoxib and other COX-2 inhibitors, is in this case due to inhibition of cytokine induced COX-2 expression as proven in cellular systems.
(§3) Effectiveness in inhibition of PGE2 production induced by IL-1β in chondrocyte cell culture, as well as inhibition in IL-1β induced COX-2 expression in SW1353 human chondrosarcoma cell line, is summarized in Table 2, for representative compounds of the invention.

[5] = test system: acetic acid-induced abdominal writhes; experiment: Acetic acid-induced writhing test; assay type: in vivo, mice; details: for MPE (%): 30 min. before acetic acid
Experimental: With the aim of assessing whether the compounds of the invention are able to inhibit responses to peritoneal irritation-induced visceral pain, the acetic acid-induced writhing assay was used in mice to determine the degree of anti-nociception.
The writhing test is a model of inflammatory pain that has long been used as a screening tool for evaluation of analgesic and anti-inflammatory agents (HDJ Collier, B. J. Pharmacol Chemother., 1968, 32, 295-310). The test was performed inducing nociception by an i.p. injection of acetic acid 1%, 0.1 mL/10 g of body weight. Mice were pre-treated (subcutaneously, s.c., three different doses: 3, 10, 30 mg/Kg) with the tested compounds 30 min. before acetic acid injection, while control animals received a similar volume of saline solution. A group of mice was treated with Paracetamol (200 mg/Kg, s.c.) as reference drug. The number of abdominal writhes (full extension of both hind paws) was cumulatively counted every 5 minutes over a period of 20 min. immediately after the acetic acid injection. The anti-nociceptive activity was expressed as inhibition of abdominal writhes as maximum percent effect (MPE), which represents the difference (%) in pain threshold between the animals treated with the drug and the ones that received only the vehicle.

[6] = test system: Zymosan-induced mechanical hyperalgesia; experiment: Zymosan-induced mechanical hyperalgesia (Randall-Selitto); assay type: in vivo, rat
Experimental: (§4) The interplantar injection of Zymosan-induced mechanical hyperalgesia was used as a model of inflammatory pain (Meller, Neuropharmacology, 1994, 33, 1471-1478). In this model, typically a male Sprague-Dawley or Wistar rat (200-250 g) receives an interplantar injection of 3 mg/100 μl zymosan into one hind paw. A marked inflammation occurs in this hind paw. Drugs are administered orally for evaluation of efficacy, 30 min. before the inflammatory insult. The hyperalgesia induced by zymosan administration was evaluated using the Randall-Selitto method (Arch. Int. Pharmacodyn., 1957, 111, 409). The quantitation of the analgesic effect is achieved by an analgesimeter, which consist in applying to the inflamed paw an increasing weight (from 130-140 g up to 500 g). The difference in the mechanical pain threshold between the basal value (generally 230-250 g) and the one tolerated by the animals treated with the drug, determined 4 hours after the inflammatory challenge, is defined as mechanical hyperalgesia.
(§5) Mechanical hyperalgesia is expressed for the compounds of the invention as ED50, which is the dose of the administered compound able to increase the pain threshold by 50% in comparison with the group of control animals. The corresponding ED100, representing the dose able of reducing of 100% the pain threshold, can be calculated for those cases where there is a linear dose-response relationship. In vivo anti-inflammatory effect exerted by the compound of the invention can be assessed in the same Zymosan induced inflammation test described above, by measuring the volume of the oedema induced by the inflammatory agent. The oedema was evaluated as the increase in the volume of the Zymosan injected paw within a time of 0-2 hrs. The measurements of the variation of the oedema volume of the paw were recorded using hydroplethysmometer, which consists of two plastic cuvettes containing a surfactant liquid, the larger one being used for immersion of the paw, connected to the smaller one which contains a trans-ducer capable of recording small displacements of the volume used for the measure. The paw is immersed in the cuvettes up to the tibiotarsal joint. The volume of the liquid displaced is proportional to the extent of the inflammation. The efficacy of the compounds of the invention in preventing oedema formation is expressed as ED30, and is measured 2 hours after the inflammatory challenge, and represents the dose able of reducing of 30%, the Zymosan induced paw volume increase in comparison to control animals (animals treated with Zymosan but treated with only distilled water instead of the testing compound). The corresponding ED50, representing the dose able of reducing of 50% the zymosan induced paw volume increase, can be calculated for those cases where there is a linear dose-response relationship.
(§6) In both the experiments, for each test compound, at least three doses were used, with 10 animals per group. Compounds of the invention were tested at 10, 20 and 40 mg/Kg.

[7] = test system: Zymosan induced paw volume increase; experiment: Zymosan-induced paw oedema; assay type: in vivo, rat
Experimental: as §4, §5, §6

[8] = test system: IL-1β induced PGE2 production; experiment: PGE2 production induced by IL-1β in chondrocyte cell culture; assay type: cell-based, rabbit; details: at 10 μM
Text: as §2, §3

[9] = test system: CFA-induced hyperalgesia; experiment: CFA model of chronic inflammatory pain; assay type: in vivo, rat

`CC(=N)Nc1ccc2nc(-c3ccc4c(c3)OCO4)ccc2c1` [Example 2, N-[2-(1,3-benzodioxol-5-yl)quinolin-6-yl]acetamidine dihydrochloride] was tested, and the “Inhibition (%) of IL-1 production” value [1] was 45%, the “MPE 0.5 hrs.” value ([2]; 3 mg/Kg i.p.) was 32% and the “MPE 1.5 hrs.” value ([2]; 3 mg/Kg i.p.) was 75%. The “MPE 3 hrs.” value ([2]; 3 mg/Kg i.p.) was 8%, the “MPE 0.5 hrs.” value ([2]; 10 mg/Kg i.p.) was 76% and the “MPE 1.5 hrs.” value ([2]; 10 mg/Kg i.p.) was 107%. The “MPE 3 hrs.” value ([2]; 10 mg/Kg i.p.) was 13%, the “MPE 0.5 hrs.” value ([2]; 30 mg/Kg i.p.) was 151% and the “MPE 1.5 hrs.” value ([2]; 30 mg/Kg i.p.) was 124%. For the same compound, the “MPE 3 hrs.” value ([2]; 30 mg/Kg i.p.) was 93%, the “Inhibition (%) of IL-6 production” value [3] was 78% and the “Inhibition of COX-2 expression in SW1353 human chondrosarcoma cell line, % at 10 μM” value [4] was 59% at 10 μM. For the same compound, the “MPE (%)” value ([5]; 3 mg/Kg s.c.) was 59%, the “MPE (%)” value ([5]; 10 mg/Kg s.c.) was 61% and the “MPE (%)” value ([5]; 30 mg/Kg s.c.) was 57%. The ED50 ([5]; Mus musculus, sc) was under 3 mg/kg, the ED50 ([6]; Rattus norvegicus, read-out: Analgesia ED50) was 10.7 mg/kg and the “Analgesia ED100” value ([6]; oral, calculated from linear dose-response) was 22 mg/kg. For the same compound, the ED50 ([7]; Rattus norvegicus, po, read-out: Oedema Reduction ED50) was 98 mg/kg, the “Oedema Reduction ED30” value ([7]; oral, 2 hours after challenge) was 15.0 mg/kg and the “Effects on PGE2 production in rabbit Chondrocyte culture, % at 10 μM” value [8] was 70% at 10 μM. For the same compound, the “MPE 0.5 hrs.” value ([9]; 3 mg/Kg i.p.) was 36%, the “MPE 1.5 hrs.” value ([9]; 3 mg/Kg i.p.) was 40% and the “MPE 3 hrs.” value ([9]; 3 mg/Kg i.p.) was 7%. For the same compound, the “MPE 0.5 hrs.” value ([9]; 10 mg/Kg i.p.) was 94%, the “MPE 1.5 hrs.” value ([9]; 10 mg/Kg i.p.) was 34% and the “MPE 3 hrs.” value ([9]; 10 mg/Kg i.p.) was 11%. The “MPE 24 hrs.” value ([9]; 10 mg/Kg i.p.) was 13%, the “MPE 0.5 hrs.” value ([9]; 30 mg/Kg i.p.) was 188% and the “MPE 1.5 hrs.” value ([9]; 30 mg/Kg i.p.) was 81%. For the same compound, the “MPE 3 hrs.” value ([9]; 30 mg/Kg i.p.) was 34% and the “MPE 24 hrs.” value ([9]; 30 mg/Kg i.p.) was 9%.
